Patent US20240189435A1, “NOVEL PEPTIDE-OLIGONUCLEOTIDE CONJUGATE AND USE THEREOF” (KOREA INSTITUTE OF SCIENCE AND TECHNOLOGY, priority 2021, published 2024)

Legend:
[1] = test system: miRNA-21; test: RT-PCR of miRNA-21 in B16 cells; assay type: cell-based; details: 300 nM, 18 hours
Method: (1) Real-time polymerase chain reaction (RT-PCR) was performed to determine whether or not miRNA-21 expression was inhibited by treatment with Pep-21. B16 cells were treated with 300 nM of Pep-21 for 18 hours, RNA was isolated, cDNA was synthesized, and then real-time polymerase chain reaction (RT-PCR) was performed using miRNA-21 primer.

[2] = test system: IL-12; test: RT-PCR of inflammatory cytokines in M2ϕ, IL-12; assay type: cell-based; details: 300 nM, 18 hours
Method: (§1) Real-time polymerase chain reaction (RT-PCR) was performed to determine whether or not treatment with Pep-21 inhibited the expression of miRNA-21. M2ϕ was treated with 300 nM of Pep-21 for 18 hours, RNA was isolated and then real-time polymerase chain reaction (RT-PCR) was performed.
(§2) In addition, the expression level of inflammatory cytokines was determined through RT-PCR.

[3] = test system: tissue inhibitor of metalloproteinase-3 (TIMP3); test: Western blot in B16 cells, TIMP3; assay type: cell-based; details: 300 nM, serum free media, 24 hours
Method: (§3) B16 cells were treated with 300 nM Pep-21 in serum free media for 24 hours, protein assay was performed and western blot was performed.
(§4) miRNA-21 related markers: programmed cell death 4 (PDCD4), matrix metalloproteinase-2 (MMP2), tissue inhibitor of metalloproteinase-3 (TIMP3)

[4] = test system: CD31; test: CD31 immunofluorescence of excised tumor tissue; assay type: in vivo, mice; details: 21 days, compared to the control group
Method: (§5) 21 days after the animal test, the excised tumor tissue was analyzed by immunofluorescence.
In addition, immunofluorescence was performed using CD31, an angiogenesis marker.

[5] = test system: Arginasel (M2 marker); test: Immunofluorescence of tumor-associated macrophages, Arginase1; assay type: in vivo, mice; details: tumor-associated macrophages in excised tumor tissue, 21 days
Method: (§6) 21 days after the animal test, tumor-associated macrophages infiltrating the excised tumor tissue were analyzed by immunofluorescence (IF).

[6] = test system: negative control miRNA; test: Agarose gel electrophoresis of sequence specificity with negative control miRNA; assay type: binding; details: 10 pmole in 100 μL PBS, 37° C., 1 hour
Method: (§7) Synthetic Pep-21 (10 pmole) was reacted with miRNA-21 and negative control miRNA in 100 μL of PBS under the same conditions as above, in other words, at 37° C. for 1 hour and then whether or not pep-21 recognizes and binds to a specific sequence of miRNA-21 was identified by agarose gel electrophoresis.
Whether or not Pep-21 recognizes and binds to a specific sequence to miRNA-21 was determined using the negative control miRNA.

[7] = test system: B16 cells; test: Cytotoxicity in B16 cells, cell counting Kit-8 (CCK-8); assay type: cell-based; details: 300 nM, 24 hours
Method: (2) To determine the cytotoxicity of this substance, B16 cells were treated with 300 nM Pep-21 for 24 hours and the cytotoxicity was confirmed using cell counting Kit-8 (CCK-8).

[8] = test system: matrix metalloproteinase-2 (MMP2); test: Western blot in B16 cells, MMP2; assay type: cell-based; details: 300 nM, serum free media, 24 hours
Method: as §3, §4

[9] = test system: miRNA-21; test: RT-PCR of miRNA-21 in treated cancer tissue; assay type: in vivo, mice; details: B16 tumor tissue, compared to the control group
From the text: (§8) On day 12 after tumor inoculation (tumor size of about 70 mm^3), PBS, peptide, Free-21, and Pep-21 were intratumorally injected three times at intervals of three days.

[10] = test system: programmed cell death 4 (PDCD4); test: Western blot in B16 cells, PDCD4; assay type: cell-based; details: 300 nM, serum free media, 24 hours
Method: as §3, §4

[11] = test system: B16 melanoma; test: Anti-tumor effect in tumor animal model; assay type: in vivo, mice; details: 500 pmole intratumorally, 3 times at 3-day intervals, from day 12 after tumor inoculation
From the text: as §8

[12] = test system: miRNA-21; test: Agarose gel electrophoresis of binding to miRNA-21
Method: The binding affinity of miRNA-21 and Pep-21 was evaluated through agarose gel electrophoresis, compared to Free-21.
as §7

[13] = test system: B16 melanoma tumor tissue; test: TUNEL assay on excised tumor tissue; assay type: in vivo, mice; details: 21 days, compared to the control group
Method: as §5
TUNEL assay was performed on tumor tissue to determine the degree of apoptosis.

[14] = test system: miRNA-21; test: RT-PCR of miRNA-21 in M2ϕ; assay type: cell-based; details: 300 nM, 18 hours
Method: as §1

[15] = test system: B16 cells; test: Scratch-wound healing assay in B16 cells; assay type: cell-based; details: 300 nM in serum free media 48 hours, observed 72 hours after wounding, compared to the control group
Method: A scratch-wound healing assay was performed in order to analyze cell migration.
B16 cells were wounded using a 200 μL pipette tip, treated with 300 nM Pep-21 in serum free media for 48 hours, and then stabilized in fresh growth media for 24 hours.

[16] = test system: TNF-α; test: RT-PCR of inflammatory cytokines in M2ϕ, TNF-α; assay type: cell-based; details: 300 nM, 18 hours
Method: as §1, §2

[17] = test system: M2ϕ (M2 bone marrow-derived macrophages); test: Cellular uptake in M2 bone marrow-derived macrophages, fluorescence microscopy; assay type: cell-based; details: 300 nM Cy5-labeled, 6 hours, compared to Free-21
[18] = test system: B16 melanoma cells; test: Cellular uptake in B16 melanoma cells, fluorescence microscopy; assay type: cell-based; details: B16, 300 nM Cy5-labeled, 6 hours
Method: Melanoma cells (B16) were treated with 300 nM miRNA-21 labeled with Cy5 fluorescent dye for 6 hours and the degree of intracellular uptake was then observed with a fluorescence microscope.

[19] = test system: iNOS (M1 marker); test: Immunofluorescence of tumor-associated macrophages, iNOS; assay type: in vivo, mice; details: tumor-associated macrophages in excised tumor tissue, 21 days
Method: as §6

Pep-21: Azide PDL1-binding peptide (N3-NYSKPTDRQYHF, d-form) click-conjugated to DBCO-anti-miR-21 DNA 5′-TCAACATCAGTCTGATAAGCTA-3′
expression of miRNA-21 (RT-PCR) [1]: decreased the expression of miRNA-21
mRNA expression of IL-12 [2]: promoted mRNA expression
Timp3 expression (western blot) [3]: increased
CD31 (angiogenesis marker) expression [4]: decreased compared to the control group
Arginasel (M2 marker) by IF [5]: decreased
band shift upon reaction with Neg-miRNA [6]: no band shift was observed
cytotoxicity (CCK-8) [7]: almost no cytotoxicity
MMP2 expression (western blot) [8]: decreased
amount of miRNA-21 expressed in cancer tissue (RT-PCR) [9]: reduced compared to the control group
PDCD4 expression (western blot) [10]: increased
cancer growth [11]: inhibit cancer growth
binding affinity to miRNA-21 (gel electrophoresis) ([12]; 10 pmole annealed with miR-21 (0, 0.25, 0.5, 0.75 and 1) in 100 μL PBS, 37° C., 1 hour): binding affinity increased as the concentration increased
band shift upon reaction with miRNA-21 ([12]; 10 pmole in 100 μL PBS, 37° C., 1 hour): a band shift was observed
sequence-specific recognition of miRNA-21 versus negative control miRNA ([12]; conclusion from the band shift test): selectively binds to miRNA-21
degree of apoptosis (TUNEL) [13]: increased compared to the control group
expression of miRNA-21 (RT-PCR) [14]: inhibited expression of miRNA-21
cancer cell migration [15]: further inhibited
mRNA expression of TNF-α [16]: promoted mRNA expression
degree of uptake into cells [17]: successfully delivered anti-21 to the cytoplasm
degree of intracellular uptake [18]: greatly advantageous in intracellular delivery
cellular uptake when blocking with PD-L1 antibody ([18]; PD-L1 antibody blocking): cellular uptake decreased
iNOS (M1 marker) by IF [19]: increased
